Results reported in patent publication US6444663B1, “Tricyclic compounds for the inhibition of the ICE/ced-3 protease family of enzymes” (Idun Pharmaceuticals, Inc., priority 1996, dated 2002).

Key:
[1] = biological target: T1, MCH-5 (Homo sapiens, UniProt Q14790); assay: Fluorescence enzyme assay, IC50 determination, Mch5; assay type: biochemical; conditions: substrate Acetyl-Asp-Glu-Val-Asp-AMC, 30 min preincubation, room temperature
Procedure: (§1) Fluorescence enzyme assays detecting the activity of the compounds of Formula 1 utilizing the recombinant ICE and CPP32 enzymes were performed essentially according to Thornberry et al. (Nature, 356:768:774 (1992)) and Nicholson et al. (Nature, 376:37-43 (1995)) respectively, (herein incorporated by reference) in 96 well microtiter plates. The substrate is Acetyl-Tyr-Val-Ala-Asp-amino-4-methylcoumarin (AMC) for the ICE assay and Acetyl-Asp-Glu-Val-Asp-amino-4-methylcoumarin for the CPP32, Mch2, Mch3 and Mch5 assays. Enzyme reactions were run in ICE buffer (25 mM HEPES, 1 mM EDTA, 0.1% CHAPS, 10% sucrose, pH 7.5) containing 2 mM DTT at room temperature in duplicate. The assays were performed by mixing the following components:
(§2) 50 μL ICE, Mch2, Mch5, CPP32 (18.8, 38, 8.1 and 0.153 nM concentrations, respectively) or Mch3 (1 unit) enzyme in ICE buffer containing either 8.0 (ICE, Mch2, Mch3, CPP32) or 20 (Mch5) mM DTT;
(§3) 50 μL compound of Formula 1 or ICE buffer (control); and
(§4) 100 μL of 20 μM substrate.
(§5) The enzyme and the compound of Formula 1 to be assayed were allowed to preincubate in the microtitre plate wells for 30 minutes at room temperature prior to the addition of substrate to initiate the reaction. Fluorescent AMC product formation was monitored for one hour at room temperature by measuring the fluorescence emission at 460 nm using an excitation wavelength of 360 nm. The fluorescence change in duplicate (control) wells were averaged and the mean values were plotted as a function of inhibitor concentration to determine the inhibitor concentration producing 50% inhibition (IC50).
(§6) The reference compound for this assay was Cbz-ValAlaAsp-H and the values are denoted in Table 1 as “Reference”.

[2] = biological target: T2, mICE (Mus musculus, UniProt P29452); assay: Fluorescence enzyme assay, IC50 determination, ICE; assay type: biochemical; conditions: recombinant enzyme, substrate Acetyl-Tyr-Val-Ala-Asp-AMC, 30 min preincubation, room temperature
T2 sequence (P29452 123-296 limits assumed): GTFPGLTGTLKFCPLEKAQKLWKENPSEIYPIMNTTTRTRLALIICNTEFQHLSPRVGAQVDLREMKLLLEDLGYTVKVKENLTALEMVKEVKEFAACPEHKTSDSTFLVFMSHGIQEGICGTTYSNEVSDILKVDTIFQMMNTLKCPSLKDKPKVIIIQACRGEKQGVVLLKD
T2 sequence (P29452 315-402 limits assumed): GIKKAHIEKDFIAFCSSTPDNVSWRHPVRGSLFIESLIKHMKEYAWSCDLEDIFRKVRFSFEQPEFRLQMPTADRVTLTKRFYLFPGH
Procedure: as §1, §2, §3, §4, §5, §6

[3] = biological target: T3, CPP32 (Homo sapiens, UniProt P42574); assay: Fluorescence enzyme assay, IC50 determination, CPP32; assay type: biochemical; conditions: recombinant enzyme, substrate Acetyl-Asp-Glu-Val-Asp-AMC, 30 min preincubation, room temperature
T3 sequence (P42574 29-175 limits assumed): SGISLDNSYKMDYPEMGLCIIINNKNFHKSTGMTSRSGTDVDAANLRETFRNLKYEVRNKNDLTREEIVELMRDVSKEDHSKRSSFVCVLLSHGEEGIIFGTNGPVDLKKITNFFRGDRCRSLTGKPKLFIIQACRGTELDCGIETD
T3 sequence (P42574 176-277 limits assumed): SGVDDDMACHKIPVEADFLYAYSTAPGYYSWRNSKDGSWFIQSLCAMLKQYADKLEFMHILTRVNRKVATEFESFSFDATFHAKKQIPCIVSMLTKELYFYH
Procedure: as §1, §2, §3, §4, §5, §6

[4] = biological target: T4, MCH-3 (Homo sapiens, UniProt P55210); assay: Fluorescence enzyme assay, IC50 determination, Mch3; assay type: biochemical; conditions: substrate Acetyl-Asp-Glu-Val-Asp-AMC, 30 min preincubation, room temperature
T4 sequence (P55210 24-198 limits assumed): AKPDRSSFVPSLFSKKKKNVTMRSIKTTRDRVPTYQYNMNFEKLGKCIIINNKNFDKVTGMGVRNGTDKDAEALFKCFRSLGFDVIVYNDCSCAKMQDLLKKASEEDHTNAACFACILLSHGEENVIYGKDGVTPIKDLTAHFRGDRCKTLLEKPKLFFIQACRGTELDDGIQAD
T4 sequence (P55210 207-303 limits assumed): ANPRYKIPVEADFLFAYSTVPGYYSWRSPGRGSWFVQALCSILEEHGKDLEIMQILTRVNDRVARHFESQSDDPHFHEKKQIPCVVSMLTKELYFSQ
Procedure: as §1, §2, §3, §4, §5, §6

[5] = biological target: T5, MCH-2 (Homo sapiens, UniProt P55212); assay: Fluorescence enzyme assay, IC50 determination, Mch2; assay type: biochemical; conditions: substrate Acetyl-Asp-Glu-Val-Asp-AMC, 30 min preincubation, room temperature
T5 sequence (P55212 24-179 limits assumed): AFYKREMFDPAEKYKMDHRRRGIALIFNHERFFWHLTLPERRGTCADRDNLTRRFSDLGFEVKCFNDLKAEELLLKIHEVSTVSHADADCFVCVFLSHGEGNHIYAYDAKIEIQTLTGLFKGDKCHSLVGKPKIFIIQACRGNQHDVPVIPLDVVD
T5 sequence (P55212 194-293 limits assumed): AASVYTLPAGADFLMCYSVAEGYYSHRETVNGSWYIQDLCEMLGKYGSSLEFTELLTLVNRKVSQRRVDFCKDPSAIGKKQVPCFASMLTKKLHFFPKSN
Procedure: as §1, §2, §3, §4, §5, §6

[6] = biological target: T3, CPP32; assay: Continuous assay for Ki and k3 of irreversible inhibitors, CPP32; assay type: biochemical
From the text: (§7) B. Determination of the dissociation constant Ki and irreversible rate constant k3 for irreversible inhibitors
(§8) For the irreversible inhibition of a ICE/ced-3 Family Protease enzyme with a competitive irreversible inhibitor; using the model represented by the following formulas: [drawing 14]
(§9) The product formation at time t may be expressed as: [formula]
(§10) where E, I, EI and E-I denote the active enzyme, inhibitor, non-covalent enzyme-inhibitor complex and covalent enzyme-inhibitor adduct, respectively. The Ki value is the overall dissociation constant of the reversible binding steps, and k3 is the irreversible rate constant. The [S] and Ks values are the substate concentration and dissociation constant of the substrate bound to the enzyme, respectively. [E]^T is the total enzyme concentration.
(§11) The above equations were used to determine the Ki and k3 values of a given inhibitor bound to a ICE/ced-3 family protease. Thus, a continuous assay was run for sixty minutes at various concentrations of the inhibitor and the substrate. The assay was formulated essentially the same as described above for generating the data in Table 1, except that the reaction was initiated by adding the enzyme to the substrate-inhibitor mixture. […]

[7] = biological target: T5, MCH-2; assay: Continuous assay for Ki and k3 of irreversible inhibitors, Mch2; assay type: biochemical
From the text: as §7, §8, §9, §10, §11

[8] = biological target: T1, MCH-5; assay: Continuous assay for Ki and k3 of irreversible inhibitors, Mch5; assay type: biochemical
From the text: as §7, §8, §9, §10, §11

[9] = biological target: T2, mICE; assay: Continuous assay for Ki and k3 of irreversible inhibitors, ICE; assay type: biochemical
From the text: as §7, §8, §9, §10, §11

[10] = continuous assay 60 min, reaction initiated by adding enzyme

T1 sequence (Q14790 217-374 limits assumed, species assumed): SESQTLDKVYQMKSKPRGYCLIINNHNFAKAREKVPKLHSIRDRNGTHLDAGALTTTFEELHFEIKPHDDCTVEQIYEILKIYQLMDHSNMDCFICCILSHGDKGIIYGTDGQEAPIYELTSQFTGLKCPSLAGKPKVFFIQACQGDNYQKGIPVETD
T1 sequence (Q14790 385-479 limits assumed, species assumed): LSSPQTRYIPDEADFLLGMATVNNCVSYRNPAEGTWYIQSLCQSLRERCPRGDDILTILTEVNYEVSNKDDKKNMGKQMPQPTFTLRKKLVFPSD

## O=C1C[C@H](NC(=O)[C@@H]2Cc3cccc4c3N2C(=O)[C@@H](NC(=O)c2cccc3ccccc23)CC4)C(O)O1 (stereo partly drawn) [Example 22]
[1]
  IC50: 1090 nM
other
  melting point: 202 to 203 °C (dec.)
[2]
  IC50: 10 nM
[3]
  IC50: 2910 nM
[4]
  IC50: 12300 nM
[5]
  IC50: > 50000 nM

## O=C(CCc1ccccc1)N[C@H]1CCc2cccc3c2N(C1=O)[C@H](C(=O)N[C@H]1CC(=O)OC1O)C3 (stereo partly drawn) [Example 16]
[1]
  IC50: 18700 nM
other
  melting point: 78 to 81 °C
[2]
  IC50: 45 nM
[3]
  IC50: 780 nM
[4]
  IC50: 32600 nM
[5]
  IC50: > 10000 nM

## CC(C)(C)OC(=O)C[C@@H](/C=N/NC(N)=O)NC(=O)[C@@H]1Cc2cccc3c2N1C(=O)[C@@H](NC(=O)c1cccc2ccccc12)CC3 [Example 20]
other
  melting point: 103 to 105 °C (dec.)

## O=C1C[C@H](NC(=O)[C@@H]2Cc3cccc4c3N2C(=O)[C@@H](NC(=O)c2ccccc2)CC4)C(O)O1 (stereo partly drawn) [Example 25]
[1]
  IC50: 4630 nM
other
  melting point: 204 to 205 °C (dec.)
[2]
  IC50: 159 nM
[3]
  IC50: 8770 nM
[4]
  IC50: > 50000 nM
[5]
  IC50: > 50000 nM

## O=C1CC(NC(=O)C2CCc3cccc4c3N2C(=O)C(NC(=O)OCc2ccccc2)CC4)C(O)O1 (mixture of isomers) [Example 28, (3R,S-cis)-6-Benzyloxycarbonylamino-5-oxo-2,3,4,5,6,7,8-hexahydro-1H-azepino[3,2,1-hi]quinoline-3-carbonyl)-amino]-4-oxo-butanoic acid]
[1]
  IC50: 2060 nM
other
  melting point: 120 to 123 °C (dec.)
[2]
  IC50: 26 nM
[3]
  IC50: 437 nM
[4]
  IC50: 1110 nM
[5]
  IC50: 32000 nM

## O=C(O)CCC(=O)N[C@H]1CCc2cccc3c2N(C1=O)[C@H](C(=O)N[C@H]1CC(=O)OC1O)C3 (stereo partly drawn) [Example 10]
[1]
  IC50: 7980 nM
other
  melting point: 145 to 160 °C (dec.)
[2]
  IC50: 571 nM
[3]
  IC50: 245 nM
[4]
  IC50: 2830 nM
[5]
  IC50: 1810 nM

## O=C(O)CC(NC(=O)[C@@H]1Cc2cccc3c2N1C(=O)[C@@H](NC(=O)OCc1ccccc1)CC3)C(=O)CF (stereo partly drawn) [Example 31]
[6]; Example 31
  k3/Ki: 960000 M⁻¹ s⁻¹
[6]; [10]
  Ki: 12 nM
[7]; Example 31
  k3/Ki: 25000 M⁻¹ s⁻¹
[7]; [10]
  Ki: 33 nM
[8]; Example 31
  k3/Ki: 98000 M⁻¹ s⁻¹
[8]; [10]
  Ki: 22 nM
[9]; Example 31
  k3/Ki: 1.2e+07 M⁻¹ s⁻¹
[9]; [10]
  Ki: 0.5 nM

## CC(=O)N[C@@H](CC(=O)O)C(=O)N[C@H]1CCc2cccc3c2N(C1=O)[C@H](C(=O)N[C@H]1CC(=O)OC1O)C3 (stereo partly drawn) [Example 7]
[1]
  IC50: 2090 nM
other
  melting point: 160 to 175 °C (dec.)
[2]
  IC50: 694 nM
[3]
  IC50: 1.4 nM
[4]
  IC50: 145 nM
[5]
  IC50: 6470 nM

## O=C(O)C[C@H](NC(=O)[C@@H]1Cc2cccc3c2N1C(=O)[C@@H](NC(=O)OCc1ccccc1)CC3)C(=O)COP(=O)(c1ccccc1)c1ccccc1 [Example 34, 3-[(2S-cis)-[5-Benzyloxycarbonylamino-1,2,3,4,5,6,7-hexahydro-4-oxoazapino[3,2,1-hi]indole-2-carbonyl]amino]5-(diphenylphosphinyl) oxy-4-oxo-pentanoic acid]
other
  melting point: 109 to 111 °C (dec.)

## O=C1C[C@H](NC(=O)[C@@H]2Cc3cccc4c3N2C(=O)[C@@H](NC(=O)OCc2ccccc2)CC4)C(O)O1 (stereo partly drawn) [Example 3]
[1]
  IC50: > 10000 nM
other
  melting point: 101 to 104 °C
[2]
  IC50: 19 nM
[3]
  IC50: 1030 nM
[4]
  IC50: 6960 nM
[5]
  IC50: 40100 nM

## CC(=O)N[C@H]1CCc2cccc3c2N(C1=O)[C@H](C(=O)N[C@H]1CC(=O)OC1O)C3 (stereo partly drawn) [Example 19]
[1]
  IC50: > 50000 nM
other
  melting point: 210 to 215 °C (dec.)
[2]
  IC50: 3070 nM
[3]
  IC50: 3870 nM
[4]
  IC50: > 50000 nM
[5]
  IC50: > 10000 nM

## O=C(O)C[C@H](NC(=O)OCc1ccccc1)C(=O)N[C@H]1CCc2cccc3c2N(C1=O)[C@H](C(=O)N[C@H]1CC(=O)OC1O)C3 (stereo partly drawn) [Example 13]
[1]
  IC50: 1190 nM
other
  melting point: 140 to 144 °C (dec.)
[2]
  IC50: 96 nM
[3]
  IC50: 0.52 nM
[4]
  IC50: 84 nM
